{"source": "ChEMBL document CHEMBL5321213", "about": "“Nicolaioidesin C: An Antiausterity Agent Shows Promising Antitumor Activity in a Pancreatic Cancer Xenograft Mouse Model” (J Nat Prod, 2023)", "key": {"MIA PaCa-2 [1]": {"test_system": "MIA PaCa-2", "experiment": "Antitumor activity against human MIA PaCa-2 cells xenografted in athymic BALB/c-nu mouse assessed as fold change in lysine level in tumor at 10 mg/kg/day, ip administered five times per week for 4 weeks by LC-MS analysis", "format": "functional"}, "MIA PaCa-2 [2]": {"test_system": "MIA PaCa-2", "experiment": "Antitumor activity against human MIA PaCa-2 cells xenografted in athymic BALB/c-nu mouse assessed as fold change in tyrosine level in tumor at 10 mg/kg/day, ip administered five times per week for 4 weeks by LC-MS analysis", "format": "functional"}, "MIA PaCa-2 [3]": {"test_system": "MIA PaCa-2", "experiment": "Inhibition of Akt/mTOR signaling pathway in human MIA PaCa-2 cells in nutrient-deprived medium assessed as reduction in mTOR phosphorylation at S2481 residue measured after 6 hrs by Western blot analysis", "format": "cell-based", "settings": "dose 5-20 µM"}, "PANC-1 [4]": {"test_system": "PANC-1", "experiment": "Antimetastatic activity in human PANC-1 cells in DMEM media assessed as inhibition of colony formation at 10 uM incubated for 24 hrs followed by replacement with fresh medium and measured after 10 days by crystal violet staining-based assay relative to control", "format": "functional"}, "MIA PaCa-2 [5]": {"test_system": "MIA PaCa-2", "experiment": "Antimetastatic activity in human MIA PaCa-2 cells in DMEM media assessed as inhibition of colony formation at 20 uM incubated for 24 hrs followed by replacement with fresh medium and measured after 10 days by crystal violet staining-based assay relative to control", "format": "functional"}, "MIA PaCa-2 [6]": {"test_system": "MIA PaCa-2", "experiment": "Antitumor activity against human MIA PaCa-2 cells xenografted in athymic BALB/c-nu mouse assessed as tumor growth inhibition at 2 mg/kg/day, ip administered five times per week for 4 weeks relative to control", "format": "functional", "settings": "MIA PaCa-2, 672 h, read-out: TGI"}, "MIA PaCa-2 [7]": {"test_system": "MIA PaCa-2", "experiment": "Antitumor activity against human MIA PaCa-2 cells xenografted in athymic BALB/c-nu mouse assessed as tumor wet weight at 10 mg/kg/day, ip administered five times per week for 4 weeks (reference value: 368 mg)", "format": "functional"}, "MIA PaCa-2 [8]": {"test_system": "MIA PaCa-2", "experiment": "Antitumor activity against human MIA PaCa-2 cells xenografted in athymic BALB/c-nu mouse assessed as fold change in glutamic acid level in tumor at 10 mg/kg/day, ip administered five times per week for 4 weeks by LC-MS analysis", "format": "functional"}, "PANC-1 [9]": {"test_system": "PANC-1", "experiment": "Preferential cytotoxicity against human PANC-1 cells in nutrient-deprived medium assessed as alteration in cell morphology by measuring cell blebbing at 5 uM measured after 24 hrs by acridine orange and ethidium bromide dual fluorescent staining based imaging analysis", "format": "functional"}, "MIA PaCa-2 [10]": {"test_system": "MIA PaCa-2", "experiment": "Preferential cytotoxicity against human MIA PaCa-2 cells in nutrient-deprived medium assessed as alteration in cell morphology by measuring cell blebbing at 5 uM measured after 24 hrs by acridine orange and ethidium bromide dual fluorescent staining based imaging analysis", "format": "functional"}, "MIA PaCa-2 [11]": {"test_system": "MIA PaCa-2", "experiment": "Inhibition of Akt/mTOR signaling pathway in human MIA PaCa-2 cells in DMEM media assessed as reduction in mTOR phosphorylation at S2481 residue at 5 to 20 uM measured after 6 hrs by Western blot analysis", "format": "cell-based", "settings": "dose 5-20 µM"}, "MIA PaCa-2 [12]": {"test_system": "MIA PaCa-2", "experiment": "Inhibition of autophagy in human MIA PaCa-2 cells in DMEM medium assessed as downregulation of LC3 protein expression at 5 to 20 uM measured after 6 hrs by Western blot analysis", "format": "functional, cell-based", "settings": "dose 5-20 µM"}, "MIA PaCa-2 [13]": {"test_system": "MIA PaCa-2", "experiment": "Antitumor activity against human MIA PaCa-2 cells xenografted in athymic BALB/c-nu mouse assessed as fold change in arabinosyl hypoxanthine level in tumor at 10 mg/kg/day, ip administered five times per week for 4 weeks by LC-MS analysis", "format": "functional"}, "MIA PaCa-2 [14]": {"test_system": "MIA PaCa-2", "experiment": "Antitumor activity against human MIA PaCa-2 cells xenografted in athymic BALB/c-nu mouse assessed as fold change in cytidine diphosphate ethanolamine level in tumor at 10 mg/kg/day, ip administered five times per week for 4 weeks by LC-MS analysis", "format": "functional"}, "MIA PaCa-2 [15]": {"test_system": "MIA PaCa-2", "experiment": "Antitumor activity against human MIA PaCa-2 cells xenografted in athymic BALB/c-nu mouse assessed as fold change in Gly-Leu metabolite level in tumor at 10 mg/kg/day, ip administered five times per week for 4 weeks by LC-MS analysis", "format": "functional"}, "MIA PaCa-2 [16]": {"test_system": "MIA PaCa-2", "experiment": "Antitumor activity against human MIA PaCa-2 cells xenografted in athymic BALB/c-nu mouse assessed as fold change in tetramethyl urea level in tumor at 10 mg/kg/day, ip administered five times per week for 4 weeks by LC-MS analysis", "format": "functional"}, "MIA PaCa-2 [17]": {"test_system": "MIA PaCa-2", "experiment": "Antitumor activity against human MIA PaCa-2 cells xenografted in athymic BALB/c-nu mouse assessed as fold change in 2'-deoxycytidine level in tumor at 2 mg/kg/day, ip administered five times per week for 4 weeks by LC-MS analysis", "format": "functional"}, "MIA PaCa-2 [18]": {"test_system": "MIA PaCa-2", "experiment": "Antitumor activity against human MIA PaCa-2 cells xenografted in athymic BALB/c-nu mouse assessed as fold change in arabinosyl hypoxanthine level in tumor at 2 mg/kg/day, ip administered five times per week for 4 weeks by LC-MS analysis", "format": "functional"}, "MIA PaCa-2 [19]": {"test_system": "MIA PaCa-2", "experiment": "Antitumor activity against human MIA PaCa-2 cells xenografted in athymic BALB/c-nu mouse assessed as fold change in biotin level in tumor at 2 mg/kg/day, ip administered five times per week for 4 weeks by LC-MS analysis", "format": "functional"}, "MIA PaCa-2 [20]": {"test_system": "MIA PaCa-2", "experiment": "Antitumor activity against human MIA PaCa-2 cells xenografted in athymic BALB/c-nu mouse assessed as fold change in cytidine level in tumor at 2 mg/kg/day, ip administered five times per week for 4 weeks by LC-MS analysis", "format": "functional"}, "MIA PaCa-2 [21]": {"test_system": "MIA PaCa-2", "experiment": "Antitumor activity against human MIA PaCa-2 cells xenografted in athymic BALB/c-nu mouse assessed as fold change in cytidine 5'-monophosphate-Neu5Ac level in tumor at 2 mg/kg/day, ip administered five times per week for 4 weeks by LC-MS analysis", "format": "functional"}, "MIA PaCa-2 [22]": {"test_system": "MIA PaCa-2", "experiment": "Antitumor activity against human MIA PaCa-2 cells xenografted in athymic BALB/c-nu mouse assessed as fold change in Gly-Leu metabolite level in tumor at 2 mg/kg/day, ip administered five times per week for 4 weeks by LC-MS analysis", "format": "functional"}, "MIA PaCa-2 [23]": {"test_system": "MIA PaCa-2", "experiment": "Antitumor activity against human MIA PaCa-2 cells xenografted in athymic BALB/c-nu mouse assessed as fold change in hypoxanthine level in tumor at 2 mg/kg/day, ip administered five times per week for 4 weeks by LC-MS analysis", "format": "functional"}, "MIA PaCa-2 [24]": {"test_system": "MIA PaCa-2", "experiment": "Antitumor activity against human MIA PaCa-2 cells xenografted in athymic BALB/c-nu mouse assessed as fold change in alanine level in tumor at 2 mg/kg/day, ip administered five times per week for 4 weeks by LC-MS analysis", "format": "functional"}, "MIA PaCa-2 [25]": {"test_system": "MIA PaCa-2", "experiment": "Antitumor activity against human MIA PaCa-2 cells xenografted in athymic BALB/c-nu mouse assessed as fold change in asparagine level in tumor at 2 mg/kg/day, ip administered five times per week for 4 weeks by LC-MS analysis", "format": "functional"}, "MIA PaCa-2 [26]": {"test_system": "MIA PaCa-2", "experiment": "Antitumor activity against human MIA PaCa-2 cells xenografted in athymic BALB/c-nu mouse assessed as fold change in phenyl alanine level in tumor at 2 mg/kg/day, ip administered five times per week for 4 weeks by LC-MS analysis", "format": "functional"}, "MIA PaCa-2 [27]": {"test_system": "MIA PaCa-2", "experiment": "Antitumor activity against human MIA PaCa-2 cells xenografted in athymic BALB/c-nu mouse assessed as fold change in tyrosine level in tumor at 2 mg/kg/day, ip administered five times per week for 4 weeks by LC-MS analysis", "format": "functional"}, "MIA PaCa-2 [28]": {"test_system": "MIA PaCa-2", "experiment": "Antitumor activity against human MIA PaCa-2 cells xenografted in athymic BALB/c-nu mouse assessed as fold change in valine level in tumor at 2 mg/kg/day, ip administered five times per week for 4 weeks by LC-MS analysis", "format": "functional"}}, "note": "Calls of active or inactive are those of the source. The calls are words filed in the database; no cut-off is given here.", "data": [{"compound": "COc1cc(O)c(C(=O)[C@@H]2CC=C(CCC=C(C)C)C[C@H]2c2ccccc2)c(O)c1", "values": [{"measurement": "fold change (FC)", "setting": "MIA PaCa-2 [1]", "value": 0.29}, {"measurement": "fold change (FC)", "setting": "MIA PaCa-2 [2]", "value": 0.43}, {"measurement": "inhibition", "setting": "MIA PaCa-2 [3]", "value": "Dose-Dependent Effect"}, {"measurement": "inhibition at 10 µM", "setting": "PANC-1 [4]", "value": 67, "unit": "%"}, {"measurement": "inhibition at 20 µM", "setting": "MIA PaCa-2 [5]", "value": 95, "unit": "%"}, {"measurement": "inhibition in vivo at 2 mg/kg/day", "setting": "MIA PaCa-2 [6]", "value": 51, "unit": "%"}, {"measurement": "Activity", "setting": "MIA PaCa-2 [7]", "value": 119, "unit": "mg"}, {"measurement": "fold change (FC)", "setting": "MIA PaCa-2 [8]", "value": 0.25}, {"measurement": "Activity", "setting": "PANC-1 [9]", "value": "Active"}, {"measurement": "Activity", "setting": "MIA PaCa-2 [10]", "value": "Active"}, {"measurement": "inhibition", "setting": "MIA PaCa-2 [11]", "value": "inactive"}, {"measurement": "inhibition", "setting": "MIA PaCa-2 [12]", "value": "inactive"}, {"measurement": "fold change (FC)", "setting": "MIA PaCa-2 [13]", "value": 0.21}, {"measurement": "fold change (FC)", "setting": "MIA PaCa-2 [14]", "value": 0.16}, {"measurement": "fold change (FC)", "setting": "MIA PaCa-2 [15]", "value": 0.4}, {"measurement": "fold change (FC)", "setting": "MIA PaCa-2 [16]", "value": 0.51}, {"measurement": "fold change (FC)", "setting": "MIA PaCa-2 [17]", "value": 0.63}, {"measurement": "fold change (FC)", "setting": "MIA PaCa-2 [18]", "value": 0.46}, {"measurement": "fold change (FC)", "setting": "MIA PaCa-2 [19]", "value": 0.86}, {"measurement": "fold change (FC)", "setting": "MIA PaCa-2 [20]", "value": 0.62}, {"measurement": "fold change (FC)", "setting": "MIA PaCa-2 [21]", "value": 0.43}, {"measurement": "fold change (FC)", "setting": "MIA PaCa-2 [22]", "value": 0.45}, {"measurement": "fold change (FC)", "setting": "MIA PaCa-2 [23]", "value": 0.57}, {"measurement": "fold change (FC)", "setting": "MIA PaCa-2 [24]", "value": 0.49}, {"measurement": "fold change (FC)", "setting": "MIA PaCa-2 [25]", "value": 0.33}, {"measurement": "fold change (FC)", "setting": "MIA PaCa-2 [26]", "value": 0.44}, {"measurement": "fold change (FC)", "setting": "MIA PaCa-2 [27]", "value": 0.41}, {"measurement": "fold change (FC)", "setting": "MIA PaCa-2 [28]", "value": 0.44}]}]}
